Data from PMC8776894 (Communications Biology, 2022).

Experiments:
MCAO/R mice = details: mouse, in vivo
[1] = system: MCAO/R mice, brain homogenate; assay: Biochemical kits, energy metabolism in brain (ATP, lactic acid); format: in vivo, mouse
Method: Mice were sacrificed under ether anesthesia 3 days after stroke. The brain was collected, weighed, and placed in a homogenizer for homogenization. Using 0.9% normal saline (NS) as a homogenization medium, a 10% tissue homogenate was prepared, centrifuged at 3500 rpm for 10 min, and the supernatant was taken. […] Kits for ATP, glutamic acid, glutathione, lactic acid, LPO, MDA, and SOD were purchased from Nanjingjiancheng Bioengineering Institute, and were measured as previously described for specification.

BV2 cells (OGD/R) = assay: qRT-PCR of proinflammatory mediators; format: cell-based, mouse; details: RT-PCR
[2] = system: IL-1β, TNF-α, IL-6, IL-8, IL-10 in serum; assay: Cytokine ELISA in serum; format: in vivo, mouse; details: MCAO/R mice, 48 h
Method: Mice were decapitated under anesthesia at 48 h after MCAO/R. The IL-1β (Cat# 88-5019-88), TNF-α (Cat# 88-7324-22), IL-6 (Cat# 88-7064-88), and IL-8 (Cat# 88-8086-22) were purchased from Thermo Fisher Scientific. The levels of these proteins were measured by enzyme-linked immune sorbent assays (ELISA) kits, according to the manufacturer’s recommendations.

[3] = system: neurons in cortex and hippocampus of MCAO/R mice; assay: Nissl staining; format: in vivo, mouse
Method: Mice were anesthetized at 48 h after MCAO/R. Brain samples (bregma −2.06–1.94 mm) were collected and fixed by 4% paraformaldehyde for 12–18 h. Following sequential dehydration by 10%, 20%, and 30% sucrose, brains were put in frozen section embedding medium (SAKURA Tissue-Tek O.C.T. Compound, Japan) and cut into […] sections at the level of the frontal cortex (bregma: 1.0 to −1.94 mm) using a cryostat microtome (Leica CM1950). The sections were subsequently stained with Nissl staining.

[4] = system: 17 phosphorylation sites, prefrontal cortex lysate; assay: Phospho antibody microarray; format: in vivo, mouse
Method: Protein phosphorylation detection was performed with a Phospho Explorer Antibody Array (Catalog number AAM-APOSIG-1-8, Ray Biotech, USA), allowing for the examination of 17 phosphorylation sites (three replicates per antibody). Whole-cell lysates from the prefrontal cortex in mice after MCAO/R and VK-treated, and the assay was performed according to the manufacturer’s protocol.

[5] = system: HT22 hippocampal neuron cells; assay: CCK-8 cytotoxicity in HT22 cells; details: CCK8 assay
[6] = Group2(VK 150) VS Group1(VK 300)
[7] = Group2(VK 150) VS Group3(Sham), AveExp.Group3 minus AveExp.Group2
[8] = Group4(Vehicle) VS Group1(VK 300)
[9] = Group4(Vehicle) VS Group2(VK 150)
[10] = Vehicle vs VK headed 150 mg/kg, Regulation up
[11] = Vehicle vs VK headed 300mg/kg, Regulation up

For “Gly-Arg-Pro-Hyp-Gly-Phe-Ser-Pro-Phe-Arg-Ile-Asp [VK, Vespakinin-M]”, the “neurological deficits and infarct size vs vehicle (antagonist study)” value (MCAO/R mice) was “attenuated neurological deficits and infarct size”, the “infarct volume, TTC staining” value (MCAO/R mice; ip) was “decreased infarct volume” and the “LD content in brain vs vehicle” value [1] was “lower LD content”. The “ATP activity in brain vs vehicle” value ([1]; VK-treated groups) was “increased ATP activity”, the “OGD/R-increased expression of proinflammatory cytokines in BV2 cells” value (BV2 cells (OGD/R)) was “remarkably blocked these effects” and the “IL-10 level in serum vs vehicle” value [2] was “increase in IL-10 levels”. The “IL-1β, TNF-α, IL-6 and IL-8 levels in the peripheral (serum) vs vehicle” value ([2]; VK 150 and 300 µg/kg) was “decreased IL-1β, TNF-α, IL-6, and IL-8 levels”, the “neuron morphology, Nissl staining” value [3] was “morphologically intact neurons were broadly seen” and the “AKT(S473) logFC” value [4, 6] was 0.1681. For the same substance, the “ATM(S1981) logFC” value [4, 6] was 0.4433, the “BAD(S112) logFC” value [4, 6] was 0.1628 and the “CHK1 (S296) logFC” value [4, 6] was 0.118. The “Casp3(D175) logFC” value [4, 6] was 0.2616, the “Casp7(D198) logFC” value [4, 6] was 0.356 and the “Erk1/2(T202) logFC” value [4, 6] was 0.2636. For the same substance, the “IkBa (S32) logFC” value [4, 6] was -0.1062, the “JNK(T183) logFC” value [4, 6] was 0.1152 and the “NFKB(S536) logFC” value [4, 6] was 0.07606. For the same substance, the “P27(T198) logFC” value [4, 6] was -0.02206, the “P38(T180/Y182) logFC” value [4, 6] was 0.08158 and the “P53(S15) logFC” value [4, 6] was -0.02082. The “SMAD2(S245) logFC” value [4, 6] was 0.2566, the “TAK1(S412) logFC” value [4, 6] was 0.04657 and the “eIF2a (S51) logFC” value [4, 6] was 0.3172. For the same substance, the “hsp27(S82) logFC” value [4, 6] was 0.2446, the “AKT(S473) logFC” value [4, 7] was 0.1633 and the “ATM(S1981) logFC” value [4, 7] was 0.1496. The “BAD(S112) logFC” value [4, 7] was 0.121, the “CHK1 (S296) logFC” value [4, 7] was 0.2057 and the “Casp3(D175) logFC” value [4, 7] was 0.09625. The “Casp7(D198) logFC” value [4, 7] was 0.03142, the “Erk1/2(T202) logFC” value [4, 7] was 0.1043 and the “IkBa (S32) logFC” value [4, 7] was 0.1056. For the same substance, the “JNK(T183) logFC” value [4, 7] was 0.02185, the “NFKB(S536) logFC” value [4, 7] was -0.02812 and the “P27(T198) logFC” value [4, 7] was 0.08521. The “P38(T180/Y182) logFC” value [4, 7] was -0.03282, the “P53(S15) logFC” value [4, 7] was 0.03719 and the “SMAD2(S245) logFC” value [4, 7] was 0.04639. For the same substance, the “TAK1(S412) logFC” value [4, 7] was 0.09444, the “eIF2a (S51) logFC” value [4, 7] was 0.1069 and the “hsp27(S82) logFC” value [4, 7] was 0.06748. For the same substance, the “AKT(S473) logFC” value ([4]; Group3(Sham) VS Group1(VK 300)) was 0.3314, the “ATM(S1981) logFC” value ([4]; Group3(Sham) VS Group1(VK 300)) was 0.5929 and the “BAD(S112) logFC” value ([4]; Group3(Sham) VS Group1(VK 300)) was 0.2838. For the same substance, the “CHK1 (S296) logFC” value ([4]; Group3(Sham) VS Group1(VK 300)) was 0.3237, the “Casp3(D175) logFC” value ([4]; Group3(Sham) VS Group1(VK 300)) was 0.3578 and the “Casp7(D198) logFC” value ([4]; Group3(Sham) VS Group1(VK 300)) was 0.3874. For the same substance, the “Erk1/2(T202) logFC” value ([4]; Group3(Sham) VS Group1(VK 300)) was 0.3679, the “IkBa (S32) logFC” value ([4]; Group3(Sham) VS Group1(VK 300)) was -0.0006282 and the “JNK(T183) logFC” value ([4]; Group3(Sham) VS Group1(VK 300)) was 0.137. For the same substance, the “NFKB(S536) logFC” value ([4]; Group3(Sham) VS Group1(VK 300)) was 0.04795, the “P27(T198) logFC” value ([4]; Group3(Sham) VS Group1(VK 300)) was 0.06315 and the “P38(T180/Y182) logFC” value ([4]; Group3(Sham) VS Group1(VK 300)) was 0.04876. The “P53(S15) logFC” value ([4]; Group3(Sham) VS Group1(VK 300)) was 0.01637, the “SMAD2(S245) logFC” value ([4]; Group3(Sham) VS Group1(VK 300)) was 0.303 and the “TAK1(S412) logFC” value ([4]; Group3(Sham) VS Group1(VK 300)) was 0.141. For the same substance, the “eIF2a (S51) logFC” value ([4]; Group3(Sham) VS Group1(VK 300)) was 0.4241, the “hsp27(S82) logFC” value ([4]; Group3(Sham) VS Group1(VK 300)) was 0.3121 and the “CHK1 (S296) logFC” value [4, 8] was 0.6052. For the same substance, the “Casp7(D198) logFC” value [4, 8] was 0.6994, the “Erk1/2(T202) logFC” value [4, 8] was 0.4686 and the “IkBa (S32) logFC” value [4, 8] was 0.671. The “JNK(T183) logFC” value [4, 8] was 0.4121, the “NFKB(S536) logFC” value [4, 8] was 0.4222 and the “P38(T180/Y182) logFC” value [4, 8] was 0.4307. The “hsp27(S82) logFC” value [4, 8] was 0.386, the “logFC AKT(S473)” value [4, 8] was 0.1073 and the “logFC ATM(S1981)” value [4, 8] was 0.3928. The “logFC BAD(S112)” value [4, 8] was 0.3454, the “logFC Casp3(D175)” value [4, 8] was 0.3417 and the “logFC P27(T198)” value [4, 8] was 0.1337. The “logFC P53(S15)” value [4, 8] was 0.1112, the “logFC SMAD2(S245)” value [4, 8] was 0.1323 and the “logFC TAK1(S412)” value [4, 8] was 0.1801. The “logFC eIF2a (S51)” value [4, 8] was 0.3444, the “logFC AKT(S473)” value [4, 9] was -0.06086 and the “logFC ATM(S1981)” value [4, 9] was -0.05046. For the same substance, the “logFC BAD(S112)” value [4, 9] was 0.1826, the “logFC CHK1 (S296)” value [4, 9] was 0.4872 and the “logFC Casp3(D175)” value [4, 9] was 0.08018. For the same substance, the “logFC Casp7(D198)” value [4, 9] was 0.3435, the “logFC Erk1/2(T202)” value [4, 9] was 0.205 and the “logFC IkBa (S32)” value [4, 9] was 0.7772. The “logFC JNK(T183)” value [4, 9] was 0.2969, the “logFC NFKB(S536)” value [4, 9] was 0.3462 and the “logFC P27(T198)” value [4, 9] was 0.1557. The “logFC P38(T180/Y182)” value [4, 9] was 0.3491, the “logFC P53(S15)” value [4, 9] was 0.132 and the “logFC SMAD2(S245)” value [4, 9] was -0.1242. For the same substance, the “logFC TAK1(S412)” value [4, 9] was 0.1335, the “logFC eIF2a (S51)” value [4, 9] was 0.02722 and the “logFC hsp27(S82)” value [4, 9] was 0.1414. For the same substance, the “levels of IκBa (S32), CHK1 (S296), NF-κB (S536), p38 (T180/Y182), Casp7 (D198), JNK(T183) vs vehicle” value ([4]; VK 150 µg/kg, MCAO/R mice) was “clearly decreased levels”, the “NFκB(S536) AveExp. Group2” value ([4]; VK group headed 150 mg/kg) was 11 and the “IκBa (S32) AveExp. Group2” value ([4]; VK group headed 150 mg/kg (text 150 µg/kg)) was 10.95. For the same substance, the “NFκB(S536) AveExp. Group1” value ([4]; VK group headed 300mg/kg) was 10.93, the “IκBa (S32) AveExp. Group1” value ([4]; VK group headed 300mg/kg (text 300 µg/kg)) was 11.05 and the “IκBa (S32) logFC” value ([4]; Vehicle (Group4) vs VK headed 150 mg/kg, Regulation up) was 0.7772. The “IκBa (S32) logFC” value ([4]; Vehicle (Group4) vs VK headed 300mg/kg, Regulation up) was 0.671, the “Casp7(D198) logFC” value [4, 10] was 0.3435 and the “JNK(T183) logFC” value [4, 10] was 0.2969. For the same substance, the “NFκB(S536) logFC” value [4, 10] was 0.3462, the “ATM(S1981) logFC” value [4, 11] was 0.3928 and the “BAD(S112) logFC” value [4, 11] was 0.3454. For the same substance, the “CHK1 (S296) logFC” value [4, 11] was 0.6052, the “Casp3(D175) logFC” value [4, 11] was 0.3417 and the “Casp7(D198) logFC” value [4, 11] was 0.6994. For the same substance, the “Erk1/2(T202) logFC” value [4, 11] was 0.4686, the “JNK(T183) logFC” value [4, 11] was 0.4121 and the “NFκB(S536) logFC” value [4, 11] was 0.4222. The “P38(T180/Y182) logFC” value [4, 11] was 0.4307, the “eIF2a (S51) logFC” value [4, 11] was 0.3444 and the “hsp27(S82) logFC” value [4, 11] was 0.386. For the same substance, the “concentrations at which VK inhibited growth of HT22 cells” value [5] was 73.5 to 735 µM.
